According to the supplement of paper PMC11451515:

Tests used:
Settings in all cases: 48 h
[1] = tested on: P12-Ichikawa; assay: cell viability relative to DMSO control; higher = less cytotoxic
Procedure, shortened: (§1)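 NOMO1 or SEM (500 cells/well) or P12-Ichikawa (1000 cells/well) leukemia cells were adapted for at least four passages in each medium. They were seeded in 1536-well plates (5 μl) and pin-dosed with library compounds in DMSO over an 11-point threefold series, 47 μM to 0.79 nM. CellTiter-Glo One luminescence was read after 48 h at 37°C. Viability is the per-plate percentage relative to DMSO wells, with cell-free wells as background.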

[2] = tested on: SEM cells; assay: as above
Procedure, shortened: as §1

[3] = tested on: NOMO1; assay: as above
Procedure, shortened: as §1

[4] = tested on: P12-Ichikawa; assay: AUC of viability dose-response curve (% viability x log10 dose units); higher = less sensitive
Procedure, shortened: (§2)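 Leukemia cells adapted to each medium were seeded in 1536-well plates (500 or 1000 cells/well) and given library compounds in DMSO for 48 h at 37°C. The 11 threefold doses spanned 47 μM to 0.79 nM, and CellTiter-Glo One luminescence was normalised per plate to DMSO and cell-free wells before four-parameter log-logistic fitting on log10 dose. Area under the curve was integrated with the trapezoidal rule, scaling curves above full viability and removing curves that failed quality control.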

[5] = tested on: SEM cells; assay: as above
Procedure, shortened: as §2

[6] = tested on: NOMO1; assay: as above
Procedure, shortened: as §2

Cn1c(=O)c2c(ncn2CC(O)CO)n(C)c1=O (stereo unspecified)
cell viability [%]
Settings | [1] | [2] | [3]
HPLM + 10% dialyzed FBS, 0.000781 µM | 113 | 87.4 | 106
HPLM + 10% dialyzed FBS, 0.00234 µM | 112 | 101 | 109
HPLM + 10% dialyzed FBS, 0.00702 µM | 110 | 116 | 114
HPLM + 10% dialyzed FBS, 0.0211 µM | 111 | 92.6 | 119
HPLM + 10% dialyzed FBS, 0.0632 µM | 114 | 104 | 121
HPLM + 10% dialyzed FBS, 0.19 µM | 116 | 109 | 136
HPLM + 10% dialyzed FBS, 0.569 µM | 115 | 113 | 103
HPLM + 10% dialyzed FBS, 1.71 µM | 111 | 111 | 120
HPLM + 10% dialyzed FBS, 5.12 µM | 108 | 96 | 130
HPLM + 10% dialyzed FBS, 15.4 µM | 117 | 108 | 103
HPLM + 10% dialyzed FBS, 46.1 µM | 124 | 124 | 111
RPMI 5 mM glucose + 10% FBS, 0.000781 µM | 109 | 106 | 119
RPMI 5 mM glucose + 10% FBS, 0.00234 µM | 104 | 96.7 | 98
RPMI 5 mM glucose + 10% FBS, 0.00702 µM | 118 | 120 | 100
RPMI 5 mM glucose + 10% FBS, 0.0211 µM | 119 | 101 | 109
RPMI 5 mM glucose + 10% FBS, 0.0632 µM | 124 | 120 | 104
RPMI 5 mM glucose + 10% FBS, 0.19 µM | 122 | 123 | 108
RPMI 5 mM glucose + 10% FBS, 0.569 µM | 127 | 113 | 103
RPMI 5 mM glucose + 10% FBS, 1.71 µM | 117 | 111 | 103
RPMI 5 mM glucose + 10% FBS, 5.12 µM | 128 | 111 | 103
RPMI 5 mM glucose + 10% FBS, 15.4 µM | 134 | 111 | 95.3
RPMI 5 mM glucose + 10% FBS, 46.1 µM | 128 | 122 | 58.2
RPMI 5 mM glucose + 10% dialyzed FBS, 0.000781 µM | 112 | 93.1 | 116
RPMI 5 mM glucose + 10% dialyzed FBS, 0.00234 µM | 114 | 120 | 116
RPMI 5 mM glucose + 10% dialyzed FBS, 0.00702 µM | 114 | 99.3 | 115
RPMI 5 mM glucose + 10% dialyzed FBS, 0.0211 µM | 116 | 110 | 128
RPMI 5 mM glucose + 10% dialyzed FBS, 0.0632 µM | 114 | 116 | 118
RPMI 5 mM glucose + 10% dialyzed FBS, 0.19 µM | 115 | 113 | 115
RPMI 5 mM glucose + 10% dialyzed FBS, 0.569 µM | 124 | 121 | 128
RPMI 5 mM glucose + 10% dialyzed FBS, 1.71 µM | 117 | 133 | 120
RPMI 5 mM glucose + 10% dialyzed FBS, 5.12 µM | 125 | 135 | 111
RPMI 5 mM glucose + 10% dialyzed FBS, 15.4 µM | 126 | 125 | 99.4
RPMI 5 mM glucose + 10% dialyzed FBS, 46.1 µM | 119 | 137 | 62.7

AUC of viability dose-response curve
Settings | [4] | [5] | [6]
HPLM + 10% dialyzed FBS | 435 | 440 | 470
RPMI 5 mM glucose + 10% FBS | 449 | 469 | 462
RPMI 5 mM glucose + 10% dialyzed FBS | 460 | 421 | 455

Nc1ccc([S+](=O)([O-])Nc2ccccn2)cc1
cell viability [%]
Settings | [1] | [2] | [3]
HPLM + 10% dialyzed FBS, 0.000781 µM | 117 | 77.7 | 122
HPLM + 10% dialyzed FBS, 0.00234 µM | 116 | 91.7 | 106
HPLM + 10% dialyzed FBS, 0.00702 µM | 115 | 91.3 | 122
HPLM + 10% dialyzed FBS, 0.0211 µM | 123 | 93.7 | 117
HPLM + 10% dialyzed FBS, 0.0632 µM | 117 | 82.7 | 106
HPLM + 10% dialyzed FBS, 0.19 µM | 117 | 91 | 115
HPLM + 10% dialyzed FBS, 0.569 µM | 130 | 93.6 | 140
HPLM + 10% dialyzed FBS, 1.71 µM | 119 | 98.8 | 133
HPLM + 10% dialyzed FBS, 5.12 µM | 115 | 88.5 | 116
HPLM + 10% dialyzed FBS, 15.4 µM | 120 | 97 | 124
HPLM + 10% dialyzed FBS, 46.1 µM | 125 | 96.9 | 87.6
RPMI 5 mM glucose + 10% FBS, 0.000781 µM | 105 | 100 | 110
RPMI 5 mM glucose + 10% FBS, 0.00234 µM | 105 | 104 | 106
RPMI 5 mM glucose + 10% FBS, 0.00702 µM | 113 | 115 | 111
RPMI 5 mM glucose + 10% FBS, 0.0211 µM | 117 | 118 | 113
RPMI 5 mM glucose + 10% FBS, 0.0632 µM | 118 | 112 | 121
RPMI 5 mM glucose + 10% FBS, 0.19 µM | 112 | 108 | 125
RPMI 5 mM glucose + 10% FBS, 0.569 µM | 121 | 122 | 112
RPMI 5 mM glucose + 10% FBS, 1.71 µM | 116 | 119 | 118
RPMI 5 mM glucose + 10% FBS, 5.12 µM | 127 | 124 | 126
RPMI 5 mM glucose + 10% FBS, 15.4 µM | 123 | 109 | 108
RPMI 5 mM glucose + 10% FBS, 46.1 µM | 127 | 111 | 79.8
RPMI 5 mM glucose + 10% dialyzed FBS, 0.000781 µM | 113 | 98.6 | 120
RPMI 5 mM glucose + 10% dialyzed FBS, 0.00234 µM | 117 | 109 | 121
RPMI 5 mM glucose + 10% dialyzed FBS, 0.00702 µM | 116 | 100 | 114
RPMI 5 mM glucose + 10% dialyzed FBS, 0.0211 µM | 113 | 101 | 109
RPMI 5 mM glucose + 10% dialyzed FBS, 0.0632 µM | 119 | 113 | 112
RPMI 5 mM glucose + 10% dialyzed FBS, 0.19 µM | 115 | 101 | 121
RPMI 5 mM glucose + 10% dialyzed FBS, 0.569 µM | 125 | 99 | 122
RPMI 5 mM glucose + 10% dialyzed FBS, 1.71 µM | 119 | 108 | 130
RPMI 5 mM glucose + 10% dialyzed FBS, 5.12 µM | 124 | 121 | 109
RPMI 5 mM glucose + 10% dialyzed FBS, 15.4 µM | 131 | 103 | 115
RPMI 5 mM glucose + 10% dialyzed FBS, 46.1 µM | 127 | 115 | 58.1

AUC of viability dose-response curve
Settings | [4] | [5] | [6]
HPLM + 10% dialyzed FBS | 467 | 438 | 470
RPMI 5 mM glucose + 10% FBS | 439 | 468 | 467
RPMI 5 mM glucose + 10% dialyzed FBS | 445 | 448 | 464
